Legend:
[1] = system: Surinam grass; test: Test B pre-/postemergence herbicide test; type: in vivo, Urochloa decumbens; conditions: for Surinam Grass plant response rating: postemergence, visual rating
Summary of the method: (§1)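 Greenhouse pot assay with simultaneous preemergence (treated seed) and postemergence (2–18 cm seedlings) applications of surfactant-containing, non-phytotoxic solvent formulations. Response scored visually 13–15 days later on a 0–100 scale, 100 meaning complete control.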

[2] = system: cocklebur; test: Test B pre-/postemergence herbicide test; type: in vivo, Xanthium strumarium
Summary of the method: (§2)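 Test chemicals in a non-phytotoxic solvent mixture with surfactant were applied preemergence to seeded species and postemergence to plants 2-18 cm tall (1- to 4-leaf stage); rice and barnyardgrass were also tested in a flooded paddy at the 2-leaf stage. Visual rating versus controls after 13-15 days in greenhouse, scale 0 (no effect) to 100 (complete control).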

[3] = system: corn; test: Test B pre-/postemergence herbicide test; type: in vivo, Zea mays
Summary of the method: as §1

[4] = system: large crabgrass; test: Test B pre-/postemergence herbicide test; type: in vivo, Digitaria sanguinalis
Summary of the method: as §1

[5] = system: giant foxtail; test: Test B pre-/postemergence herbicide test; type: in vivo, Setaria faberi
Summary of the method: as §1

[6] = system: lambsquarters; test: Test B pre-/postemergence herbicide test; type: in vivo, Chenopodium album; conditions: for Lambsquarters plant response rating: postemergence, visual rating
Summary of the method: as §1

[7] = system: morningglory; test: Test B pre-/postemergence herbicide test; type: in vivo, Ipomoea coccinea; conditions: for Morningglory plant response rating: postemergence, visual rating
Summary of the method: as §2

[8] = system: pigweed; test: Test B pre-/postemergence herbicide test; type: in vivo, Amaranthus retroflexus; conditions: for Pigweed plant response rating: postemergence, visual rating
Summary of the method: as §1

[9] = system: velvetleaf; test: Test B pre-/postemergence herbicide test; type: in vivo, Abutilon theophrasti; conditions: for Velvetleaf plant response rating: postemergence, visual rating
Summary of the method: as §1

[10] = system: blackgrass; test: Test B postemergence herbicide test; type: in vivo, Alopecurus myosuroides; conditions: scale 0 (no effect) to 100 (complete control); for Plant response rating, Blackgrass: Postemergence, 500 g ai/ha, visual rating after 13 to 15 days; for Blackgrass plant response rating: postemergence, 125 g ai/ha, visual rating
Summary of the method: (§3)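 Paddy species grown to the 2-leaf stage under flooding; blackgrass sprayed postemergence at 2–18 cm (1- to 4-leaf stage). Plants kept in a greenhouse for 13 to 15 days, then visually rated against controls on 0 (no effect) to 100 (complete control).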

[11] = system: wheat; test: Test B postemergence herbicide test; type: in vivo, Triticum aestivum; design: key to Wheat plant response rating: 0 = no effect, 100 = complete control; conditions: scale 0 (no effect) to 100 (complete control); for Plant response rating, Wheat: Postemergence, 500 g ai/ha, visual rating after 13 to 15 days; for Wheat plant response rating: postemergence, 125 g ai/ha, visual rating
Summary of the method: (§4)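 Postemergence plants were sprayed with formulated test chemicals at 2 to 18 cm height (1- to 4-leaf stage); paddy species were grown to the 2-leaf stage. After 13 to 15 days in a greenhouse, injury was rated visually against untreated controls on a 0–100 scale (0 = no effect, 100 = complete control).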

[12] = system: wild oat; test: Test B postemergence herbicide test; type: in vivo, Avena fatua; conditions: scale 0 (no effect) to 100 (complete control); for Plant response rating, Oat, Wild: Postemergence, 500 g ai/ha, visual rating after 13 to 15 days; for Oat, Wild plant response rating: postemergence, 125 g ai/ha, visual rating
Summary of the method: as §4

[13] = system: rice; test: Test B flooded paddy test; type: in vivo, Oryza sativa; conditions: 1000 g ai/ha, visual rating, scale 0 to 100 (0 no effect, 100 complete control), 13 to 15 days
Summary of the method: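 Greenhouse test; postemergence application to plants at 1–4 leaves (2–18 cm); paddy species at 2 leaves; evaluated visually vs controls at 13–15 days; scale 0–100 (100 = complete control).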

[14] = system: small flower umbrella sedge; test: Test B flooded paddy test; type: in vivo, Cyperus difformis; conditions: 1000 g ai/ha, visual rating, scale 0 to 100 (0 no effect, 100 complete control), 13 to 15 days
Summary of the method: as §3

[15] = system: barnyardgrass; test: Test B flooded paddy test; type: in vivo, Echinochloa crus-galli; conditions: 1000 g ai/ha, visual rating, scale 0 to 100 (0 no effect, 100 complete control), 13 to 15 days
Summary of the method: as §3

[16] = 500 g ai/ha, visual rating 0-100, 0 no effect, 100 complete control, preemergence
[17] = Postemergence, 500 g ai/ha, visual rating after 13 to 15 days, scale 0 (no effect) to 100 (complete control)
[18] = 125 g ai/ha, scale 0 (no effect) to 100 (complete control)
[19] = preemergence, 125 g ai/ha, 0 to 100 scale, 0 is no effect, 100 is complete control
[20] = postemergence, 125 g ai/ha, visual rating, scale 0 (no effect) to 100 (complete control)
[21] = Preemergence, 500 g ai/ha, scale 0 to 100

## CCn1nc(C(C)(C)C)cc1C(=O)Nc1cccc(C(C)=NO)c1 [Compound 108]
[1]; [16]
  Plant response rating, Surinam Grass: 80
[1]; [17]
  Plant response rating, Surinam Grass: 10
[1]; [18]
  Surinam Grass plant response rating: 10
[1]; [19]
  Plant response rating, Surinam Grass: 50
[2]; [16]
  Plant response rating, Cocklebur: 30
[2]; [17]
  Plant response rating, Cocklebur: 90
[2]; [20]
  Cocklebur plant response rating: 70
[2]; [19]
  Plant response rating, Cocklebur: 10
[3]; [16]
  Plant response rating, Corn: 30
[3]; [17]
  Plant response rating, Corn: 20
[3]; [20]
  Corn plant response rating: 10
[3]; [19]
  Plant response rating, Corn: 10
[4]; [16]
  Plant response rating, Crabgrass, Large: 100
[4]; [17]
  Plant response rating, Crabgrass, Large: 70
[4]; [20]
  Crabgrass, Large plant response rating: 20
[4]; [19]
  Plant response rating, Crabgrass, Large: 100
[5]; [16]
  Plant response rating, Foxtail, Giant: 100
[5]; [17]
  Plant response rating, Foxtail, Giant: 30
[5]; [20]
  Foxtail, Giant plant response rating: 10
[5]; [19]
  Plant response rating, Foxtail, Giant: 90
[6]; [16]
  Plant response rating, Lambsquarters: 100
[6]; [17]
  Plant response rating, Lambsquarters: 100
[6]; [18]
  Lambsquarters plant response rating: 90
[6]; [19]
  Plant response rating, Lambsquarters: 100
[7]; [16]
  Plant response rating, Morningglory: 70
[7]; [17]
  Plant response rating, Morningglory: 100
[7]; [18]
  Morningglory plant response rating: 30
[7]; [19]
  Plant response rating, Morningglory: 50
[8]; [16]
  Plant response rating, Pigweed: 100
[8]; [17]
  Plant response rating, Pigweed: 100
[8]; [18]
  Pigweed plant response rating: 80
[8]; [19]
  Plant response rating, Pigweed: 90
[9]; [16]
  Plant response rating, Velvetleaf: 100
[9]; [17]
  Plant response rating, Velvetleaf: 70
[9]; [18]
  Velvetleaf plant response rating: 50
[9]; [19]
  Plant response rating, Velvetleaf: 80
[10]
  Plant response rating, Blackgrass: 20
  Blackgrass plant response rating: 0
[11]
  Plant response rating, Wheat: 20
  Wheat plant response rating: 10
[12]
  Plant response rating, Oat, Wild: 50
  Oat, Wild plant response rating: 20
[13]
  Rice plant response rating: 70
[14]
  Sedge, Umbrella plant response rating: 90
[15]
  Barnyardgrass plant response rating: 80

## CCn1nc(C(C)(C)C)cc1C(=O)Nc1cccc(C(=O)OC)c1 [Compound 81]
[1]; [17]
  Plant response rating, Surinam Grass: 60
[1]; [18]
  Surinam Grass plant response rating: 40
[1]; [19]
  Plant response rating, Surinam Grass: 0
[2]; [17]
  Plant response rating, Cocklebur: 90
[2]; [21]
  Cocklebur plant response rating: 0
[2]; [20]
  Cocklebur plant response rating: 70
[2]; [19]
  Plant response rating, Cocklebur: 0
[3]; [17]
  Plant response rating, Corn: 30
[3]; [21]
  Corn plant response rating: 0
[3]; [20]
  Corn plant response rating: 10
[3]; [19]
  Plant response rating, Corn: 0
[4]; [17]
  Plant response rating, Crabgrass, Large: 20
[4]; [21]
  Crabgrass, Large plant response rating: 10
[4]; [20]
  Crabgrass, Large plant response rating: 10
[4]; [19]
  Plant response rating, Crabgrass, Large: 0
[5]; [17]
  Plant response rating, Foxtail, Giant: 50
[5]; [21]
  Foxtail, Giant plant response rating: 60
[5]; [20]
  Foxtail, Giant plant response rating: 20
[5]; [19]
  Plant response rating, Foxtail, Giant: 10
[6]; [17]
  Plant response rating, Lambsquarters: 50
[6]; [18]
  Lambsquarters plant response rating: 0
[6]; [19]
  Plant response rating, Lambsquarters: 0
[7]; [17]
  Plant response rating, Morningglory: 30
[7]; [18]
  Morningglory plant response rating: 0
[7]; [19]
  Plant response rating, Morningglory: 10
[8]; [17]
  Plant response rating, Pigweed: 90
[8]; [18]
  Pigweed plant response rating: 50
[8]; [19]
  Plant response rating, Pigweed: 20
[9]; [17]
  Plant response rating, Velvetleaf: 90
[9]; [18]
  Velvetleaf plant response rating: 80
[9]; [19]
  Plant response rating, Velvetleaf: 0
[10]
  Plant response rating, Blackgrass: 20
  Blackgrass plant response rating: 0
[11]
  Plant response rating, Wheat: 40
  Wheat plant response rating: 20
[12]
  Plant response rating, Oat, Wild: 30
  Oat, Wild plant response rating: 20
[13]
  Rice plant response rating: 60
[14]
  Sedge, Umbrella plant response rating: 80
[15]
  Barnyardgrass plant response rating: 50

## CC(=NO)c1cccc(NC(=O)c2cc(C(C)(C)C)nn2C)c1 [Compound 102]
[1]; [16]
  Plant response rating, Surinam Grass: 40
[1]; [17]
  Plant response rating, Surinam Grass: 100
[1]; [18]
  Surinam Grass plant response rating: 70
[1]; [19]
  Plant response rating, Surinam Grass: 20
[2]; [16]
  Plant response rating, Cocklebur: 0
[2]; [17]
  Plant response rating, Cocklebur: 50
[2]; [20]
  Cocklebur plant response rating: 30
[2]; [19]
  Plant response rating, Cocklebur: 0
[3]; [16]
  Plant response rating, Corn: 50
[3]; [17]
  Plant response rating, Corn: 40
[3]; [20]
  Corn plant response rating: 20
[3]; [19]
  Plant response rating, Corn: 0
[4]; [16]
  Plant response rating, Crabgrass, Large: 100
[4]; [17]
  Plant response rating, Crabgrass, Large: 70
[4]; [20]
  Crabgrass, Large plant response rating: 10
[4]; [19]
  Plant response rating, Crabgrass, Large: 100
[5]; [16]
  Plant response rating, Foxtail, Giant: 80
[5]; [17]
  Plant response rating, Foxtail, Giant: 30
[5]; [20]
  Foxtail, Giant plant response rating: 10
[5]; [19]
  Plant response rating, Foxtail, Giant: 30
[6]; [16]
  Plant response rating, Lambsquarters: 100
[6]; [17]
  Plant response rating, Lambsquarters: 20
[6]; [18]
  Lambsquarters plant response rating: 10
[6]; [19]
  Plant response rating, Lambsquarters: 100
[7]; [16]
  Plant response rating, Morningglory: 100
[7]; [17]
  Plant response rating, Morningglory: 30
[7]; [18]
  Morningglory plant response rating: 10
[7]; [19]
  Plant response rating, Morningglory: 50
[8]; [16]
  Plant response rating, Pigweed: 100
[8]; [17]
  Plant response rating, Pigweed: 100
[8]; [18]
  Pigweed plant response rating: 80
[8]; [19]
  Plant response rating, Pigweed: 90
[9]; [16]
  Plant response rating, Velvetleaf: 70
[9]; [17]
  Plant response rating, Velvetleaf: 20
[9]; [18]
  Velvetleaf plant response rating: 0
[9]; [19]
  Plant response rating, Velvetleaf: 0
[10]
  Plant response rating, Blackgrass: 20
  Blackgrass plant response rating: 0
[11]
  Plant response rating, Wheat: 20
  Wheat plant response rating: 0
[12]
  Plant response rating, Oat, Wild: 40
  Oat, Wild plant response rating: 20
[13]
  Rice plant response rating: 50
[14]
  Sedge, Umbrella plant response rating: 100
[15]
  Barnyardgrass plant response rating: 80

Source: patent US20060069132A1, “Azolecarboxamide herbicides” (priority 2004, published 2006)
